For 27 compounds, mortality results are on record in ChEMBL document CHEMBL3045660, “Regioselective synthesis of fraxinellone-based hydrazone derivatives as insecticidal agents” (2012).

What all share (assay type): functional
Experiment [1] relates to Mythimna separata. As to the kind of experiment: Insecticidal activity against pre-third-instar larvae of Mythimna separata (Oriental armyworm) in compound treated fresh corn leaves assessed as corrected mortality at 1 mg/ml measured after 10 days by leaf-dipping method. Conditions: 240 h.
Experiment [2] concerns Mythimna separata. Briefly: Insecticidal activity against pre-third-instar larvae of Mythimna separata (Oriental armyworm) in compound treated fresh corn leaves assessed as corrected mortality at 1 mg/ml measured after 20 days by leaf-dipping method. Conditions: 480 h.
Experiment [3] relates to Mythimna separata. As to the kind of experiment: Insecticidal activity against pre-third-instar larvae of Mythimna separata (Oriental armyworm) in compound treated fresh corn leaves assessed as corrected mortality at 1 mg/ml measured after 35 days by leaf-dipping method. The conditions noted are these: 840 h.

For orientation: mortality means the percentage killed.

As for `COc1ccc(C(=O)N/N=C/C2=C3C(=O)O[C@@H](c4ccoc4)[C@]3(C)CCC2)cc1`, the mortality at 1000 µg/mL was 37.9% in the experiment on Mythimna separata [1], 44.4% in the experiment on Mythimna separata [2] and 50% in the experiment with Mythimna separata [3].

For the compound `C[C@@]12CCCC(/C=N/NC(=O)c3ccc([N+](=O)[O-])cc3[N+](=O)[O-])=C1C(=O)O[C@H]2c1ccoc1`, the mortality at 1000 µg/mL is 31% with Mythimna separata [1], 40.7% with Mythimna separata [2] and 53.8% with Mythimna separata [3].

Regarding `CC1=C2C(=O)O[C@@H](c3ccoc3)[C@]2(C)CC/C1=N\NC(=O)c1ccccc1`, the mortality at 1000 µg/mL with Mythimna separata [1] is 58.6%; in the experiment with Mythimna separata [2], 63%; with Mythimna separata [3], 76.9%.

In the case of `CC1=C2C(=O)O[C@@H](c3ccoc3)[C@]2(C)CC/C1=N\NC(=O)c1ccc([N+](=O)[O-])cc1`, the mortality at 1000 µg/mL is 58.6% in the experiment with Mythimna separata [1], 63% with Mythimna separata [2] and 65.4% in the experiment with Mythimna separata [3].

As for `CC1=C2C(=O)O[C@@H](c3ccoc3)[C@]2(C)CC/C1=N\NC(=O)c1cccc(Cl)c1`, the mortality at 1000 µg/mL in the experiment on Mythimna separata [1] was 58.6%; in the experiment with Mythimna separata [2], 59.3%; in the experiment on Mythimna separata [3], 69.2%.

Consider `CC1=C2C(=O)O[C@@H](c3ccoc3)[C@]2(C)CC/C1=N\NC(=O)c1ccncc1`, for which the mortality at 1000 µg/mL amounted to 24.1% in the experiment with Mythimna separata [1], 33.3% in the experiment with Mythimna separata [2] and 50% with Mythimna separata [3].

As to `CC1=C2C(=O)O[C@@H](c3ccoc3)[C@]2(C)CC/C1=N\NC(=O)c1cccs1`, the mortality at 1000 µg/mL with Mythimna separata [1] worked out at 20.7%; in the experiment with Mythimna separata [2] it was 29.6%; in the experiment on Mythimna separata [3], 38.5%.

Take `CC1=C2C(=O)O[C@@H](c3ccoc3)[C@]2(C)CC/C1=N\NC(=O)CC#N`: the mortality at 1000 µg/mL in the experiment with Mythimna separata [1] was 34.5%; with Mythimna separata [2], 33.3%; in the experiment with Mythimna separata [3] it was 61.5%.

`CC1=C2C(=O)O[C@@H](c3ccoc3)[C@]2(C)CC/C1=N\Nc1ccccc1`: the mortality at 1000 µg/mL with Mythimna separata [1] amounted to 10.3%; in the experiment on Mythimna separata [2] it was 22.2%; in the experiment on Mythimna separata [3], 46.2%.

With `CC1=C2C(=O)O[C@@H](c3ccoc3)[C@]2(C)CC/C1=N\Nc1ccc([N+](=O)[O-])cc1`, the figures for the mortality at 1000 µg/mL in the experiment with Mythimna separata [1], in the experiment on Mythimna separata [2] and with Mythimna separata [3] were 34.5%, 40.7% and 53.8%, respectively.

In the case of `CC1=C2C(=O)O[C@@H](c3ccoc3)[C@]2(C)CC/C1=N\Nc1ccccc1[N+](=O)[O-]`, the results for the mortality at 1000 µg/mL in the experiment with Mythimna separata [1], in the experiment on Mythimna separata [2] and in the experiment with Mythimna separata [3] were 24.1%, 33.3% and 46.2%, respectively.

For `CC1=C2C(=O)O[C@@H](c3ccoc3)[C@]2(C)CC/C1=N\Nc1c(F)c(F)cc(F)c1F`, the mortality at 1000 µg/mL in the experiment on Mythimna separata [1] was determined as 27.6%; in the experiment with Mythimna separata [2] it was 40.7%; in the experiment on Mythimna separata [3], 50%.

As to `C[C@@]12CCCC(/C=N/NC(=O)c3ccccc3)=C1C(=O)O[C@H]2c1ccoc1`, the mortality at 1000 µg/mL in the experiment with Mythimna separata [1] came out at 58.6%; in the experiment on Mythimna separata [2] it was 55.6%; with Mythimna separata [3], 65.4%.

For the compound `C[C@@]12CCCC(/C=N/NC(=O)c3ccc([N+](=O)[O-])cc3)=C1C(=O)O[C@H]2c1ccoc1`, the mortality at 1000 µg/mL turned out to be 37.9% in the experiment with Mythimna separata [1], 48.1% in the experiment with Mythimna separata [2] and 61.5% in the experiment with Mythimna separata [3].

In the case of `C[C@@]12CCCC(/C=N/NC(=O)c3cccc(Cl)c3)=C1C(=O)O[C@H]2c1ccoc1`, the mortality at 1000 µg/mL came out at 44.8% in the experiment on Mythimna separata [1], 40.7% with Mythimna separata [2] and 53.8% with Mythimna separata [3].

Turning to `C[C@@]12CCCC(/C=N/NC(=O)c3ccncc3)=C1C(=O)O[C@H]2c1ccoc1`, the mortality at 1000 µg/mL in the experiment on Mythimna separata [1] amounted to 55.2%; with Mythimna separata [2] it was 66.7%; in the experiment on Mythimna separata [3], 73.1%.

Turning to `C[C@@]12CCCC(/C=N/NC(=O)c3cccs3)=C1C(=O)O[C@H]2c1ccoc1`, the mortality at 1000 µg/mL was found to be 24.1% with Mythimna separata [1], 29.6% in the experiment on Mythimna separata [2] and 34.6% in the experiment with Mythimna separata [3].

On to `C[C@@]12CCCC(/C=N/NC(=O)CC#N)=C1C(=O)O[C@H]2c1ccoc1`, for which the mortality at 1000 µg/mL was 55.2% with Mythimna separata [1], 66.7% in the experiment with Mythimna separata [2] and 69.2% in the experiment on Mythimna separata [3].

Take `C[C@@]12CCCC(/C=N/Nc3ccccc3)=C1C(=O)O[C@H]2c1ccoc1`: the mortality at 1000 µg/mL with Mythimna separata [1] was 27.6%; in the experiment with Mythimna separata [2], 44.4%; with Mythimna separata [3], 53.8%.

As for `C[C@@]12CCCC(/C=N/Nc3ccc([N+](=O)[O-])cc3)=C1C(=O)O[C@H]2c1ccoc1`, the mortality at 1000 µg/mL with Mythimna separata [1] was found to be 20.7%; in the experiment with Mythimna separata [2], 14.8%; in the experiment on Mythimna separata [3] it was 38.5%.

`C[C@@]12CCCC(/C=N/Nc3ccccc3[N+](=O)[O-])=C1C(=O)O[C@H]2c1ccoc1`: the mortality at 1000 µg/mL came out at 13.8% in the experiment with Mythimna separata [1], 37% in the experiment with Mythimna separata [2] and 50% with Mythimna separata [3].

For `C[C@@]12CCCC(/C=N/Nc3c(F)c(F)cc(F)c3F)=C1C(=O)O[C@H]2c1ccoc1`, the mortality at 1000 µg/mL in the experiment on Mythimna separata [1] amounted to 37.9%; in the experiment on Mythimna separata [2], 40.7%; in the experiment on Mythimna separata [3], 61.5%.

For the compound `Cc1cccc(C(=O)N/N=C/C2=C3C(=O)O[C@@H](c4ccoc4)[C@]3(C)CCC2)c1`, the mortality at 1000 µg/mL in the experiment on Mythimna separata [1] worked out at 41.4%; with Mythimna separata [2], 44.4%; in the experiment with Mythimna separata [3], 53.8%.

As for `C[C@@]12CCCC(C=O)=C1C(=O)O[C@H]2c1ccoc1` [3-FORMYLFRAXINELLONE], the mortality at 1000 µg/mL with Mythimna separata [1] was 17.2%; in the experiment on Mythimna separata [2], 25.9%; with Mythimna separata [3], 34.6%.

With `CC1=C2C(=O)O[C@@H](c3ccoc3)[C@]2(C)CCC1` [FRAXINELLONE], the mortality at 1000 µg/mL was 41.4% with Mythimna separata [1], 40.7% in the experiment on Mythimna separata [2] and 53.8% in the experiment on Mythimna separata [3].

As for `CC1=C2C(=O)O[C@@H](c3ccoc3)[C@]2(C)CCC1=O` [FRAXINELLONONE], the mortality at 1000 µg/mL in the experiment with Mythimna separata [1] turned out to be 48.3%; in the experiment with Mythimna separata [2], 48.1%; in the experiment on Mythimna separata [3] it was 57.7%.

With `CC(=O)O[C@@H]1C[C@H](O)[C@@]23CO[C@@H](O)[C@]1(C)[C@@H]2C[C@@H](O)[C@]1(C)[C@@H]3C(=O)[C@H](OC(C)=O)[C@@]2(C)[C@H](c3ccoc3)C[C@H]3O[C@]321` [TOOSENDANIN], the mortality at 1000 µg/mL in the experiment with Mythimna separata [1] came out at 24.1%; with Mythimna separata [2] it was 33.3%; in the experiment on Mythimna separata [3], 53.8%.
